This note sets out measurements from patent US6222035A, “[1,2,4] triazolo [1,5-C] pyrimidine derivatives” (Kyowa Hakko Kogyo Co., Ltd., priority 1997, dated 2001).

Assay [1] deals with learned helplessness model in rats. Briefly: Activity in Learned Helplessness (LH) Model. The class given is in vivo, rat (male SD). Conditions: 5.0 mg/kg po, electric shock (IES) loaded, Average % ± SE. How it is done:
Activity in Learned Helplessness (LH) Model
As experimental animals, 10 to 15 animals per group of SD male rats (220 to 320 g in body weight, 7 week age, Charles River Japan, Atsugi) were used. During the preliminary feeding period, they were allowed to have feed (CRF-1, Oriental Yeast, Tokyo) and water (tap water) freely in an animal room at a room temperature of 22 to 24° C. and a humidity of 50 to 60%. The test compound was orally administered in a dose of 2 ml/kg and 1 hour before FR 1 (fixed ratio schedule 1: repetition of fixed trial conditions) on the second day of the test.
2) Preparation of Learned Helplessness Model
A shuttle box apparatus (TK-401S; manufactured by UNICOM, Chiba) was used as the learning test apparatus. […]
On the second day, a shuttle box test was carried out by slightly modifying the method of Maier et al. [J. Comp. […] The escape reaction was judged success when both of the two escape times in FR 2 were less than 10 seconds, and the escape response was calculated by the following formula: "the number of trials of successful escape/15×100=escape response (%)" Further, migration in the box other than the escape reaction observed during a period between trials (resting time) was used as an index of psychomotor stimulant action by calculating "total number of migration in the box/15×100=intertrial response (%)" […]

The test system of assay [2] is CGS 21680-induced catalepsy in mice. Description: Activity on CGS 21680-induced Catalepsy. Type of assay: in vivo, mouse (male ddY). The following applies: 10 mg/kg oral. The method in brief: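 Male ddY mice (5 weeks, 10 per group) received CGS 21680 10 μg/20 μl intracerebroventricularly; test compounds given orally at 10 mg/kg in 0.3% Tween 80 suspension. Catalepsy scored 1 h after dosing on a 4.5 cm bar; total group score (maximum 50) compared with control; ≤4 per animal counted as remission.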

The target in a further assay is T1, adenosine A2A receptor (Rattus norvegicus, UniProt P30543).
T1 construct: from tissue; host or cells: rat corpus striatum, washed membrane suspension
T1 sequence (P30543 whole entry): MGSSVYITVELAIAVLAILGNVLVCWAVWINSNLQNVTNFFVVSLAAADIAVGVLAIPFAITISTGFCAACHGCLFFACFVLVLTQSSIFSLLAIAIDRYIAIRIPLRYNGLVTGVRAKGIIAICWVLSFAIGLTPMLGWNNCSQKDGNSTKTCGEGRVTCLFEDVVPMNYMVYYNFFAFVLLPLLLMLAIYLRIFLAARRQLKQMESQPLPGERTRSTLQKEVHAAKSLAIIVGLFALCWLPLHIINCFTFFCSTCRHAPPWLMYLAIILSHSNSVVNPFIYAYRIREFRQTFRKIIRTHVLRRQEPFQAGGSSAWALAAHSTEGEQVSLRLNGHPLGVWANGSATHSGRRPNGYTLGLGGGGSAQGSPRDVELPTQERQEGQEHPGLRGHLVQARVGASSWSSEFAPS
Briefly: Adenosine receptor binding activity (adenosine A2A receptor binding test), 3H-CGS 21680 binding. The following applies: 2 h, read-out: A2A receptor inhibition ratio (%). The method in brief: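 Rat corpus striatum membranes (5 mg wet tissue/mL in 50 mM Tris-HCl pH 7.7, 10 mM MgCl2, adenosine deaminase) incubated with 4.0 nM 3H-CGS 21680 and test compound for 120 min at 25 °C, then filtered and counted. Nonspecific binding defined with 100 μM CPA; % inhibition of specific binding calculated.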

The subject of assay [3] is common marmoset MPTP-treated Parkinson's disease model. Briefly: Activity in a Parkinson's Disease Model (common marmoset treated with MPTP). The class given is in vivo.

On to `Nc1nc(N2CCN(C(=O)c3ccccc3)CC2)cc2nc(-c3ccco3)nn12` [Compound 45, 5-Amino-7-(4-benzoylpiperazinyl)-2-(2-furyl)[1,2,4]triazolo[1,5-c]pyrimidine], for which the Intertrial response in assay [1] amounted to 6.7 ± 3.8%. Further, in assay [1] (**: p < 0.01 vs loaded control), the Escape response is listed as 64 ± 9.8%.
For the compound `Nc1nc(N2CCN(CCCc3ccccc3)CC2)cc2nc(-c3ccco3)nn12` [Compound 63, 5-Amino-2-(2-furyl)-7-[4-(3-phenylpropyl)piperazinyl][1,2,4]triazolor[1,5-c]pyrimidine], the “Total score (catalepsy)” value in assay [2] (10 animals, maximum 50 points, control 48) was found to be 7. Also, the “Number of Animals showing remission” value in assay [2] (catalepsy score 4 points or less in 10 cases) is 10. Also, the inhibition in vivo at 10 mg/kg in assay [2] (Mus musculus, CGS 21680-induced catalepsy, read-out: Remission ratio (%)) is 84%. Further, the inhibition at 0.1 µM at adenosine A2A receptor (10^-7 M) is 82%. Besides, on adenosine A2A receptor (10^-8 M), the inhibition at 0.01 µM is 31%. Further, the “Total spontaneous motor count” value in assay [3] (FIG. 2, common marmoset treated with MPTP) is given as “increase”. Besides, the “Efficacy in the common marmoset MPTP-treated Parkinson's disease model” value in assay [3] (total Parkinson's disease symptom score and locomotor count vs vehicle) is “effective”.
